Test results reported in the NIST ThermoML archive (doi:10.1007/s10765-006-0051-4).
± gives the expanded uncertainty stated by the source.

Test: xn = mol fraction of the nth substance listed
Settings: Gas, Oscillating disk viscometry

FC(F)C(F)(F)F [pentafluoroethane] + CCC
Settings | viscosity [mPa·s]
298.15 K, 101.2 kPa, x1 = 0.7503 | 0.01219 ± 0.00044
298.15 K, 102 kPa, x1 = 0.5011 | 0.01122 ± 0.00042
298.15 K, 197.9 kPa, x1 = 0.7503 | 0.01223 ± 0.00044
298.15 K, 198.2 kPa, x1 = 0.5011 | 0.01121 ± 0.00042
298.15 K, 294.6 kPa, x1 = 0.7503 | 0.01221 ± 0.00044
298.15 K, 302.6 kPa, x1 = 0.5011 | 0.01121 ± 0.00042
298.15 K, 391.5 kPa, x1 = 0.7503 | 0.01222 ± 0.00044
298.15 K, 396.1 kPa, x1 = 0.5011 | 0.01123 ± 0.00042
298.15 K, 492.3 kPa, x1 = 0.7503 | 0.01223 ± 0.00044
298.15 K, 499.4 kPa, x1 = 0.5011 | 0.01123 ± 0.00042
298.15 K, 589.1 kPa, x1 = 0.7503 | 0.01225 ± 0.00044
298.15 K, 591.1 kPa, x1 = 0.5011 | 0.01124 ± 0.00042
298.15 K, 687.4 kPa, x1 = 0.5011 | 0.01125 ± 0.00042
298.15 K, 689 kPa, x1 = 0.7503 | 0.01229 ± 0.00044
298.15 K, 789 kPa, x1 = 0.5011 | 0.01128 ± 0.00042
298.15 K, 803.5 kPa, x1 = 0.7503 | 0.01229 ± 0.00044
298.15 K, 913.4 kPa, x1 = 0.7503 | 0.01235 ± 0.00044
298.15 K, 928.2 kPa, x1 = 0.5011 | 0.01131 ± 0.00042
298.15 K, 1012.4 kPa, x1 = 0.7503 | 0.01248 ± 0.00044
298.15 K, 1025.1 kPa, x1 = 0.5011 | 0.01138 ± 0.00042
298.15 K, 1231.3 kPa, x1 = 0.7503 | 0.01257 ± 0.00045
323.15 K, 101.8 kPa, x1 = 0.5011 | 0.01214 ± 0.00044
323.15 K, 102.2 kPa, x1 = 0.7503 | 0.01319 ± 0.00046
323.15 K, 199 kPa, x1 = 0.7503 | 0.01317 ± 0.00046
323.15 K, 213.9 kPa, x1 = 0.5011 | 0.01213 ± 0.00044
323.15 K, 294.9 kPa, x1 = 0.7503 | 0.0132 ± 0.00046
323.15 K, 391.1 kPa, x1 = 0.7503 | 0.01321 ± 0.00046
323.15 K, 395.8 kPa, x1 = 0.5011 | 0.01215 ± 0.00044
323.15 K, 519.4 kPa, x1 = 0.7503 | 0.01322 ± 0.00046
323.15 K, 592.8 kPa, x1 = 0.5011 | 0.01219 ± 0.00044
323.15 K, 636.3 kPa, x1 = 0.7503 | 0.01325 ± 0.00046
323.15 K, 766.4 kPa, x1 = 0.7503 | 0.01326 ± 0.00046
323.15 K, 788.9 kPa, x1 = 0.5011 | 0.01225 ± 0.00044
323.15 K, 883.2 kPa, x1 = 0.7503 | 0.01334 ± 0.00046
323.15 K, 983.8 kPa, x1 = 0.5011 | 0.01228 ± 0.00044
323.15 K, 1005.1 kPa, x1 = 0.7503 | 0.01339 ± 0.00047
323.15 K, 1125.1 kPa, x1 = 0.7503 | 0.01346 ± 0.00047
323.15 K, 1181.8 kPa, x1 = 0.5011 | 0.01241 ± 0.00044
323.15 K, 1249.7 kPa, x1 = 0.7503 | 0.01351 ± 0.00047
323.15 K, 1371.2 kPa, x1 = 0.7503 | 0.01361 ± 0.00047
323.15 K, 1374.9 kPa, x1 = 0.5011 | 0.01255 ± 0.00045
323.15 K, 1486.3 kPa, x1 = 0.7503 | 0.01367 ± 0.00047
323.15 K, 1618.9 kPa, x1 = 0.7503 | 0.01379 ± 0.00047
323.15 K, 1667.7 kPa, x1 = 0.5011 | 0.01272 ± 0.00045
323.15 K, 1736.1 kPa, x1 = 0.7503 | 0.01387 ± 0.00048
323.15 K, 1862.6 kPa, x1 = 0.5011 | 0.01289 ± 0.00046
323.15 K, 1864.4 kPa, x1 = 0.7503 | 0.01404 ± 0.00048
323.15 K, 1985.7 kPa, x1 = 0.5011 | 0.013 ± 0.00046
323.15 K, 1992.1 kPa, x1 = 0.7503 | 0.0142 ± 0.00049
323.15 K, 2071.4 kPa, x1 = 0.5011 | 0.01314 ± 0.00046
323.15 K, 2101.6 kPa, x1 = 0.7503 | 0.01435 ± 0.00049
323.15 K, 2211.6 kPa, x1 = 0.7503 | 0.01452 ± 0.00049
323.15 K, 2349.2 kPa, x1 = 0.7503 | 0.01482 ± 0.0005
348.15 K, 101.1 kPa, x1 = 0.5011 | 0.01295 ± 0.00046
348.15 K, 101.4 kPa, x1 = 0.7503 | 0.01409 ± 0.00048
348.15 K, 198.4 kPa, x1 = 0.5011 | 0.01299 ± 0.00046
348.15 K, 199.7 kPa, x1 = 0.7503 | 0.01407 ± 0.00048
348.15 K, 305.5 kPa, x1 = 0.5011 | 0.01297 ± 0.00046
348.15 K, 388.2 kPa, x1 = 0.7503 | 0.01416 ± 0.00048
348.15 K, 401.6 kPa, x1 = 0.5011 | 0.01296 ± 0.00046
348.15 K, 588.6 kPa, x1 = 0.7503 | 0.01424 ± 0.00049
348.15 K, 592.5 kPa, x1 = 0.5011 | 0.01307 ± 0.00046
348.15 K, 750.8 kPa, x1 = 0.7503 | 0.01427 ± 0.00049
348.15 K, 784.8 kPa, x1 = 0.5011 | 0.01316 ± 0.00046
348.15 K, 978.4 kPa, x1 = 0.7503 | 0.01432 ± 0.00049
348.15 K, 986 kPa, x1 = 0.5011 | 0.01318 ± 0.00046
348.15 K, 1173.8 kPa, x1 = 0.7503 | 0.01443 ± 0.00049
348.15 K, 1178.4 kPa, x1 = 0.5011 | 0.01326 ± 0.00046
348.15 K, 1374.6 kPa, x1 = 0.5011 | 0.01335 ± 0.00046
348.15 K, 1374.7 kPa, x1 = 0.7503 | 0.01455 ± 0.00049
348.15 K, 1565.7 kPa, x1 = 0.7503 | 0.01468 ± 0.0005
348.15 K, 1571.2 kPa, x1 = 0.5011 | 0.0135 ± 0.00047
348.15 K, 1770.2 kPa, x1 = 0.7503 | 0.01482 ± 0.0005
348.15 K, 1772.3 kPa, x1 = 0.5011 | 0.01362 ± 0.00047
348.15 K, 1960.9 kPa, x1 = 0.5011 | 0.01374 ± 0.00047
348.15 K, 1963.9 kPa, x1 = 0.7503 | 0.01499 ± 0.0005
348.15 K, 2130.4 kPa, x1 = 0.7503 | 0.01511 ± 0.00051
348.15 K, 2139.9 kPa, x1 = 0.5011 | 0.01387 ± 0.00048
348.15 K, 2297.9 kPa, x1 = 0.5011 | 0.01404 ± 0.00048
348.15 K, 2335.5 kPa, x1 = 0.7503 | 0.01538 ± 0.00051
348.15 K, 2492.4 kPa, x1 = 0.7503 | 0.01555 ± 0.00052
348.15 K, 2501 kPa, x1 = 0.5011 | 0.0143 ± 0.00049
348.15 K, 2660.6 kPa, x1 = 0.7503 | 0.01583 ± 0.00052
348.15 K, 2695.6 kPa, x1 = 0.5011 | 0.01451 ± 0.00049
348.15 K, 2804.7 kPa, x1 = 0.7503 | 0.01604 ± 0.00053
348.15 K, 2928.8 kPa, x1 = 0.7503 | 0.01629 ± 0.00053
348.15 K, 2932.5 kPa, x1 = 0.5011 | 0.01494 ± 0.0005
348.15 K, 3079.4 kPa, x1 = 0.7503 | 0.01666 ± 0.00054
348.15 K, 3111.7 kPa, x1 = 0.5011 | 0.01524 ± 0.00051
348.15 K, 3230.6 kPa, x1 = 0.7503 | 0.01697 ± 0.00055
348.15 K, 3383.2 kPa, x1 = 0.7503 | 0.01739 ± 0.00056
373.15 K, 101 kPa, x1 = 0.7503 | 0.01505 ± 0.00051
373.15 K, 101.5 kPa, x1 = 0.5011 | 0.01376 ± 0.00047
373.15 K, 220 kPa, x1 = 0.7503 | 0.01506 ± 0.00051
373.15 K, 225.5 kPa, x1 = 0.5011 | 0.01381 ± 0.00048
373.15 K, 389.7 kPa, x1 = 0.7503 | 0.0151 ± 0.00051
373.15 K, 397.7 kPa, x1 = 0.5011 | 0.01383 ± 0.00048
373.15 K, 585.6 kPa, x1 = 0.5011 | 0.01386 ± 0.00048
373.15 K, 637.7 kPa, x1 = 0.7503 | 0.01515 ± 0.00051
373.15 K, 781.4 kPa, x1 = 0.5011 | 0.01393 ± 0.00048
373.15 K, 877.8 kPa, x1 = 0.7503 | 0.01525 ± 0.00051
373.15 K, 980.5 kPa, x1 = 0.5011 | 0.01401 ± 0.00048
373.15 K, 1141.8 kPa, x1 = 0.7503 | 0.01537 ± 0.00051
373.15 K, 1174.2 kPa, x1 = 0.5011 | 0.01407 ± 0.00048
373.15 K, 1370.5 kPa, x1 = 0.5011 | 0.01413 ± 0.00048
373.15 K, 1477.4 kPa, x1 = 0.7503 | 0.01552 ± 0.00052
373.15 K, 1560.4 kPa, x1 = 0.5011 | 0.01422 ± 0.00049
373.15 K, 1717 kPa, x1 = 0.7503 | 0.01566 ± 0.00052
373.15 K, 1753.9 kPa, x1 = 0.5011 | 0.01434 ± 0.00049
373.15 K, 1949.4 kPa, x1 = 0.5011 | 0.01447 ± 0.00049
373.15 K, 1961.1 kPa, x1 = 0.7503 | 0.01583 ± 0.00052
373.15 K, 2125.3 kPa, x1 = 0.5011 | 0.01458 ± 0.00049
373.15 K, 2185.2 kPa, x1 = 0.7503 | 0.01605 ± 0.00053
373.15 K, 2318.9 kPa, x1 = 0.5011 | 0.01469 ± 0.0005
373.15 K, 2415.9 kPa, x1 = 0.7503 | 0.01623 ± 0.00053
373.15 K, 2508.1 kPa, x1 = 0.5011 | 0.01487 ± 0.0005
373.15 K, 2631.2 kPa, x1 = 0.7503 | 0.01641 ± 0.00054
373.15 K, 2708.4 kPa, x1 = 0.5011 | 0.01508 ± 0.00051
373.15 K, 2950.3 kPa, x1 = 0.7503 | 0.01679 ± 0.00055
373.15 K, 2961.4 kPa, x1 = 0.5011 | 0.01536 ± 0.00051
373.15 K, 3209.9 kPa, x1 = 0.7503 | 0.01714 ± 0.00055
373.15 K, 3217 kPa, x1 = 0.5011 | 0.01568 ± 0.00052
373.15 K, 3421.2 kPa, x1 = 0.7503 | 0.01749 ± 0.00056
